Columns and labels:
[1] = target: Cyclin-dependent kinase 1/cyclin B (Homo sapiens, UniProt P06493); experiment: Inhibition of Cyclin-dependent kinase 1-cyclin B; assay type: protein-complex assay
[2] = target: Cyclin-dependent kinase 2/cyclin E (Homo sapiens, UniProt P24941)
Description: Inhibition of Cyclin-dependent kinase 2-cyclin E

[3] = test system: HCT-116; experiment: Inhibition of human colon carcinoma cell (HCT116) proliferation; assay type: functional, cell-based
[4] = target: Cyclin-dependent kinase 4/cyclin D1 (Homo sapiens, UniProt P11802); experiment: Inhibition of Cyclin-dependent kinase 4-cyclin D1; assay type: protein-complex assay
Cyclin-dependent kinase 4/cyclin D1, sequence (P11802 whole entry): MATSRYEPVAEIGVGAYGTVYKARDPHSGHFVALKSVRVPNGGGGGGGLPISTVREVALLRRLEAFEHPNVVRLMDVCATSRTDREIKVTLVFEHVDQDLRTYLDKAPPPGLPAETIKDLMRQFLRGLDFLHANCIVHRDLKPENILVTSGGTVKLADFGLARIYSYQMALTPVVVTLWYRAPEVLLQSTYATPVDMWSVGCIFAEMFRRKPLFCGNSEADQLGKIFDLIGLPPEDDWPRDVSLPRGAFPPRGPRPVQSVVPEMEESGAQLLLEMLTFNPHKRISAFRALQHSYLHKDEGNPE
Cyclin-dependent kinase 4/cyclin D1, sequence (P24385 whole entry, further chain): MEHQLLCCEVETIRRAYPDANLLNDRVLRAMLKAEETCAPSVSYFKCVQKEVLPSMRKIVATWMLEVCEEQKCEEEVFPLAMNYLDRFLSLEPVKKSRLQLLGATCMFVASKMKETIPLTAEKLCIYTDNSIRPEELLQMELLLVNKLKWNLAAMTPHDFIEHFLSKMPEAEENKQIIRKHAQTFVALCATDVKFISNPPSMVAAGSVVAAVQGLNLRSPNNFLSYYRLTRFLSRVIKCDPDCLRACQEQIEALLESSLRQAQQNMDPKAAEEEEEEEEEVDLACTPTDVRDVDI

SMILES | IC50 [1] | IC50 [2] | IC50 [3] | IC50 [4]
CCc1nn(-c2c(Cl)cc(Cl)cc2Cl)c2nc(Cc3ccc(OC)cc3)[nH]c(=O)c12 | 150 nM | 10 nM | 600 nM | 2.2 µM
CSc1nn(-c2ccccc2Cl)c2nc(C)[nH]c(=O)c12 | – | – | – | 19 µM
CSc1nn(-c2c(Cl)cc(Cl)cc2Cl)c2nc(C(C)C)[nH]c(=O)c12 | – | – | – | 10 µM
CSc1nn(-c2c(Cl)cc(Cl)cc2Cl)c2nc(C3CC3)[nH]c(=O)c12 | – | 400 nM | – | 4.3 µM
CCc1nn(-c2c(Cl)cc(Cl)cc2Cl)c2nc(Cc3cccc(N)c3)[nH]c(=O)c12 | 270 nM | 40 nM | 470 nM | 2.9 µM
Cc1nc2c(c(C(F)(F)F)nn2-c2c(Cl)cc(Cl)cc2Cl)c(=O)[nH]1 | – | – | – | 3.1 µM
CCc1nn(-c2c(Cl)cc(Cl)cc2Cl)c2nc(CCSC)[nH]c(=O)c12 | – | – | – | 6.5 µM
CSc1nn(-c2ccccc2)c2nc(C)[nH]c(=O)c12 | – | – | – | > 180 µM
Cc1nc2c(c(CO)nn2-c2c(Cl)cc(Cl)cc2Cl)c(=O)[nH]1 | – | – | – | 7 µM
CSc1nn(-c2cccc(Cl)c2)c2nc(C)[nH]c(=O)c12 | – | – | – | > 160 µM
CSc1nn(-c2c(Cl)cc(Cl)cc2Cl)c2nc(-c3ccco3)[nH]c(=O)c12 | – | – | – | 36 µM
CCc1nn(-c2c(Cl)cc(Cl)cc2Cl)c2nc(C)n(C)c(=O)c12 | – | > 27000 nM | – | > 27 µM
CCCc1nc2c(c(SC)nn2-c2c(Cl)cc(Cl)cc2Cl)c(=O)[nH]1 | – | – | – | 9.1 µM
CSCc1nc2c(c(SC)nn2-c2c(Cl)cc(Cl)cc2Cl)c(=O)[nH]1 | – | 310 nM | – | 15 µM
CCCCc1nn(-c2c(Cl)cc(Cl)cc2Cl)c2nc(C)[nH]c(=O)c12 | – | – | – | > 6.5 µM
CCc1nn(-c2c(Cl)cc(Cl)cc2Cl)c2nc(CCc3cnc[nH]3)[nH]c(=O)c12 | – | 620 nM | – | 3.6 µM
CCc1nn(-c2c(Cl)cc(Cl)cc2Cl)c2nc(Cc3cccc(C)c3)[nH]c(=O)c12 | > 560 nM | 390 nM | 2100 nM | > 2.2 µM
CCc1nn(-c2c(Cl)cc(Cl)cc2Cl)c2nc(Cc3ccccc3O)[nH]c(=O)c12 | – | 120 nM | 5500 nM | > 11 µM
CCc1nn(-c2c(Cl)cc(Cl)cc2Cl)c2nc(C)nc(N)c12 | – | – | – | > 140 µM
Cc1nc2c(cnn2-c2c(Cl)cc(Cl)cc2Cl)c(=O)[nH]1 | – | – | – | 12 µM
CCc1nn(-c2c(Cl)cc(Cl)cc2Cl)c2nc(Cc3ccc(O)cc3)[nH]c(=O)c12 | 100 nM | 10 nM | 90 nM | 2 µM

SMILES | IC50 [1] | IC50 [2] | IC50 [3] | IC50 [4]
CSc1nn(-c2ccccn2)c2nc(C)[nH]c(=O)c12 | – | – | – | > 180 µM
CSc1nn(-c2c(Cl)cc(Cl)cc2Cl)c2nc(CCCCCO)[nH]c(=O)c12 | – | 420 nM | – | 10 µM
CCc1nn(-c2c(Cl)cc(Cl)cc2Cl)c2nc(Cc3ccncc3)[nH]c(=O)c12 | 490 nM | 30 nM | 550 nM | 3 µM
CSc1nn(-c2c(Cl)cccc2Cl)c2nc(C)[nH]c(=O)c12 | – | – | – | 5.3 µM
CSc1nn(-c2c(Cl)cc(Cl)cc2C(F)(F)F)c2nc(C)[nH]c(=O)c12 | – | – | – | 29 µM
CSc1nn(-c2c(C)cc(Cl)cc2Cl)c2nc(C)[nH]c(=O)c12 | – | – | – | 11 µM
CSc1nn(Cc2ccccc2)c2nc(C)[nH]c(=O)c12 | – | – | – | > 150 µM
CSc1nn(-c2c(Cl)cc(Cl)cc2Cl)c2nc(CN(C)C(=O)OC(C)(C)C)[nH]c(=O)c12 | – | – | – | > 50 µM
CSc1nn(-c2c(Cl)cc(Cl)cc2Cl)c2nc[nH]c(=O)c12 | – | 2700 nM | – | 95 µM
CCc1nn(-c2c(Cl)cc(Cl)cc2Cl)c2nc(Cc3ccccn3)[nH]c(=O)c12 | – | 230 nM | 3700 nM | 9.7 µM
C=Cc1nc2c(c(CC)nn2-c2c(Cl)cc(Cl)cc2Cl)c(=O)[nH]1 | – | 310 nM | – | 2.9 µM
CSc1nn(-c2c(Cl)cc(Cl)cc2Cl)c2nc(Cc3ccccc3)[nH]c(=O)c12 | – | 440 nM | – | 11 µM
CSc1nn(-c2cc(C)ccc2C)c2nc(C)[nH]c(=O)c12 | – | – | – | 25 µM
CCc1nn(-c2c(Cl)cc(Cl)cc2Cl)c2nc(Cc3ccccc3CO)[nH]c(=O)c12 | > 270 nM | 20 nM | 490 nM | 2.9 µM
CSc1nn(-c2c(Cl)cc(Cl)cc2Cl)c2nc(CCCO)[nH]c(=O)c12 | – | 760 nM | – | 13 µM
CCc1nn(-c2c(Cl)cc(Cl)cc2Cl)c2nc(Cc3ccc(N(C)C)cc3)[nH]c(=O)c12 | > 260 nM | 20 nM | 340 nM | > 2.1 µM
CCc1nn(-c2c(Cl)cc(Cl)cc2Cl)c2nc(Cc3ccccc3OC)[nH]c(=O)c12 | – | 100 nM | 3400 nM | > 22 µM
CCOC(=O)Cc1cccc(Cc2nc3c(c(CC)nn3-c3c(Cl)cc(Cl)cc3Cl)c(=O)[nH]2)c1 | – | 150 nM | – | > 1.9 µM
Cc1nc2c(c(C#N)nn2-c2c(Cl)cc(Cl)cc2Cl)c(=O)[nH]1 | – | – | – | > 28 µM
CSc1nn(-c2c(Cl)cc(Cl)cc2Cl)c2nc(C(F)(F)F)[nH]c(=O)c12 | – | – | – | > 116 µM
CSc1nn(-c2c(C)cc(C)cc2C)c2nc(C)[nH]c(=O)c12 | – | – | – | 37 µM

SMILES | IC50 [1] | IC50 [2] | IC50 [3] | IC50 [4]
CSc1nn(-c2c(Cl)cc(Cl)cc2Cl)c2nc(CF)[nH]c(=O)c12 | – | 1600 nM | – | 44 µM
CCc1nn(-c2c(Cl)cc(Cl)cc2Cl)c2nc(-c3ccc(OC)c(OC)c3)[nH]c(=O)c12 | – | 580 nM | – | > 21 µM
CSc1nn(-c2ccc(C)cc2C)c2nc(C)[nH]c(=O)c12 | – | – | – | 48 µM
CCc1nn(-c2c(Cl)cc(Cl)cc2Cl)c2nc(Cc3ccc(Br)cc3)[nH]c(=O)c12 | – | 50 nM | 2300 nM | > 1.2 µM
CCc1nn(-c2c(Cl)cc(Cl)cc2Cl)c2nc(Cc3ccccc3)[nH]c(=O)c12 | 260 nM | 20 nM | 600 nM | 3 µM
Cc1nc2c(c(CCO)nn2-c2c(Cl)cc(Cl)cc2Cl)c(=O)[nH]1 | – | – | – | > 140 µM
CSc1nn(-c2ccc(C(C)C)cc2)c2nc(C)[nH]c(=O)c12 | – | – | – | > 160 µM
CCc1nc2c(c(CC)nn2-c2c(Cl)cc(Cl)cc2Cl)c(=O)[nH]1 | – | 90 nM | – | 0.94 µM
CCc1nn(-c2c(Cl)cc(Cl)cc2Cl)c2nc(Cc3cc(O)cc(O)c3)[nH]c(=O)c12 | – | 20 nM | 300 nM | 0.05 µM
CSc1nn(-c2c(Cl)cc(C(F)(F)F)cc2Cl)c2nc(C)[nH]c(=O)c12 | – | – | – | 8 µM
CSc1nn(-c2c(Cl)cc(Cl)cc2Cl)c2nc(Cc3cccs3)[nH]c(=O)c12 | – | – | – | 20 µM
CCc1nn(-c2c(Cl)cc(Cl)cc2Cl)c2nc(CCc3ccccc3)[nH]c(=O)c12 | – | 1800 nM | – | 7.1 µM
CCc1nn(-c2c(Cl)cc(Cl)cc2Cl)c2nc(Cc3cccc(NS(C)(=O)=O)c3)[nH]c(=O)c12 | – | 260 nM | 470 nM | 0.16 µM
CSc1nn(CCO)c2nc(C)[nH]c(=O)c12 | – | – | – | > 210 µM
CCc1nn(-c2c(Cl)cc(Cl)cc2Cl)c2nc(Cc3ccc(OC)c(C)c3)[nH]c(=O)c12 | 870 nM | 60 nM | 2100 nM | > 2.1 µM
CCc1nn(-c2c(Cl)cc(Cl)cc2Cl)c2nc(CCCCO)[nH]c(=O)c12 | – | 250 nM | – | 2.4 µM
CSc1nn(-c2c(Cl)cc(Cl)cc2Cl)c2nc(C(C)O)[nH]c(=O)c12 (stereo unspecified) | – | – | – | 27 µM
CSc1nn(-c2ccc(Cl)cc2C)c2nc(C)[nH]c(=O)c12 | – | – | – | 74 µM
CCc1nn(-c2c(Cl)cc(Cl)cc2Cl)c2nc(CC(C)C)[nH]c(=O)c12 | – | 110 nM | – | > 6.3 µM
CSc1nn(-c2ccc(Cl)cc2)c2nc(C)[nH]c(=O)c12 | – | – | – | > 160 µM
CSc1nn(C(C)(C)C)c2nc(C)[nH]c(=O)c12 | – | – | – | > 100 µM

SMILES | IC50 [1] | IC50 [2] | IC50 [3] | IC50 [4]
CCc1nn(-c2c(Cl)cc(Cl)cc2Cl)c2nc(C)[nH]c(=O)c12 | – | 140 nM | – | 1.1 µM
CSc1nn(-c2cccc(Cl)c2Cl)c2nc(C)[nH]c(=O)c12 | – | – | – | 50 µM
CCc1nn(-c2c(Cl)cc(Cl)cc2Cl)c2nc(Cc3cccnc3)[nH]c(=O)c12 | 220 nM | 10 nM | 300 nM | 1.3 µM
Cc1nc2c(c(-c3ccccc3)nn2-c2c(Cl)cc(Cl)cc2Cl)c(=O)[nH]1 | – | – | – | > 120 µM
CCc1nn(-c2c(Cl)cc(Cl)cc2Cl)c2nc(Cc3ccc(C)c(OC)c3)[nH]c(=O)c12 | – | 110 nM | 9500 nM | 2.1 µM
Cc1nc2c(c(Cc3ccccc3)nn2-c2c(Cl)cc(Cl)cc2Cl)c(=O)[nH]1 | – | – | – | > 48 µM
CSc1nn(-c2cc(Cl)ccc2Cl)c2nc(C)[nH]c(=O)c12 | – | – | – | 23 µM
CCc1nn(-c2c(Cl)cc(Cl)cc2Cl)c2c1S(=O)(=O)NC(C)=N2 | – | > 13000 nM | – | > 51 µM
COc1ccccc1-n1nc(SC)c2c(=O)[nH]c(C)nc21 | – | – | – | > 83 µM
CSc1nn(-c2ccc(Cl)cc2Cl)c2nc(C)[nH]c(=O)c12 | – | – | – | 37 µM
Cc1nc2c(c(C)nn2-c2c(Cl)cc(Cl)cc2Cl)c(=O)[nH]1 | – | – | – | 3.5 µM
CCCCn1nc(SC)c2c(=O)[nH]c(C)nc21 | – | – | – | > 200 µM
CCCc1nn(-c2c(Cl)cc(Cl)cc2Cl)c2nc(C)[nH]c(=O)c12 | – | – | – | 5.7 µM
CCc1nn(-c2c(Cl)cc(Cl)cc2Cl)c2nc(Cc3ccc(O)c(O)c3)[nH]c(=O)c12 | 240 nM | – | 720 nM | 0.04 µM
CSc1nn(-c2c(Cl)cc(Cl)cc2Cl)c2nc(CCN(C)C(=O)OC(C)(C)C)[nH]c(=O)c12 | – | 19000 nM | – | > 48 µM
COC(=O)c1nc2c(c(SC)nn2-c2c(Cl)cc(Cl)cc2Cl)c(=O)[nH]1 | – | – | – | 240 µM
CCc1nn(-c2c(Cl)cc(Cl)cc2Cl)c2nc(Cc3cccc(OC)c3)[nH]c(=O)c12 | 410 nM | 30 nM | 1700 nM | 5 µM
CSc1nn(-c2cc(C(F)(F)F)ccc2Cl)c2nc(C)[nH]c(=O)c12 | – | – | – | 15 µM
CCc1nn(-c2c(Cl)cc(Cl)cc2Cl)c2nc(Cc3cccc(N)c3C)[nH]c(=O)c12 | > 270 nM | 10 nM | 190 nM | > 2.2 µM
CNCc1nc(O)c2c(SC)nn(-c3c(Cl)cc(Cl)cc3Cl)c2n1 | – | – | – | > 57 µM
CNCCc1nc2c(c(SC)nn2-c2c(Cl)cc(Cl)cc2Cl)c(=O)[nH]1 | – | 6600 nM | – | 28 µM
